In patent US20080145440A1, “Microparticle preparation and medical composition” (priority 2006, published 2008):

Experiments:
[1] = system: mouse-derived colon cancer cells (colon-26); assay: In vitro cellular toxicity experiment (CCK-8); assay type: cell-based; conditions: colon-26, 10 μg/ml, forty eight hour treatment
Method: Using mouse-derived colon cancer cells (colon-26), a toxicity of the microparticle to cancer cells was experimented. Specifically, the experiment was conducted according to the following method:
The colon-26 cells were disseminated on a 96 well-plate at 1′104 concentration and cultured for twenty four hours. […] Cellular toxicity was examined by measuring absorbency under 450 nm with a CCK-8 kit (Dojindo, Kumamoto, Japan), the CCK-8 kit measuring formazan substitution of tetrazolium based on an intercellular enzyme.

[2] = system: Mouse-derived colon cancer (colon-26 adenocarcinoma) cells; assay: In vivo experiment of anticancer treatment; parameters: species or system BALB/c male mouse; conditions: cancer-bearing mice
Method: As an experimental animal, a six-week-old BALB/c male mouse (weight 25 g, Shimizu Laboratory Supplies Co., Ltd.) was selected. […] In the experiment, the same agent treatment was performed as in the toxicity experiment. Specifically, the experiment was conducted in the following methods:
Weight changes and survival rate were observed from the day of the administration.

N.N.[Cl][Pt][Cl] [free CDDP, cis-dichlorodiammineplatinum (II)]
cytostatic effect [1]: approximately 50%
day of minimum weight after the administration ([2]; 20 mg/kg of CDDP intraperitoneal): fifth day
anticancer effect, concentration difference 5 mg/kg vs 10 mg/kg ([2]; intraperitoneal): no significant difference in the anticancer effect
start of death from cancer after the administration ([2]; intraperitoneal): started to die of cancer after a fortieth day
